The source of these data is patent US11634417B2 (Array BioPharma Inc., priority 2019, dated 2023).

The test system of assay [1] is ERK1/2 (Thr202/Tyr204) phosphorylation in KYSE520 cells. Description: Cellular Phospho-p44/42 MAPK (Erk1/2) (Thr202/Tyr204) assay, In-Cell Western. The format is cell-based. To be noted: Homo sapiens. The protocol: Inhibition of ERK1/2 (Thr202/Tyr204) phosphorylation was determined by the following cellular assay, which comprises incubating cells with a compound for 1 hour and quantifying pERK signal by In-Cell Western on fixed cells and normalizing to GAPDH signal. KYSE520 cells were obtained from DSMZ and grown in RPMI supplemented with 10% fetal bovine serum, penicillin/streptomycin, 2 mM L-alanyl-L-glutamine dipeptide in 0.85% NaCl (Glutamax™), non-essential amino acids, and sodium pyruvate. Cells were plated in 96-well plates at 30,000 cells/well and allowed to attach overnight at 37° C./5% CO2. Cells were treated with compounds prepared as a 10-point, 1:3 dilution series (range: 20 μM-1 nM), with a final DMSO concentration of 0.5%. After 1 hour incubation, cells were fixed in 3.7% formaldehyde in Dulbecco's phosphate-buffered saline (“dPBS”) at room temperature for 20 minutes. Cells were then washed with dPBS and permeabilized in 100% MeOH at room temperature for 10 minutes. Following permeabilization, cells were washed in dPBS and incubated in LI-COR Blocking Buffer (LI-COR Biosciences, Cat #927-40000) for 1 hour or longer. Plates were then incubated with an antibody specific for the MEK-dependent ERK1/2 phosphorylation sites, threonine 202 and tyrosine 204 (Cell Signaling Technologies; Cat #9101), downstream of SHP2 in the MAP kinase signal transduction pathway, as well as GAPDH (Millipore; Cat #MAB374). pErk1/2 (Thr202/Tyr204) antibody was diluted in LI-COR blocking buffer containing 0.05% polysorbate-20 (Tween-20) at 1:250; GAPDH was diluted at 1:2,500. The plates were incubated overnight at 4° C. After washing with PBS/0.05% Tween-20, the cells were incubated with fluorescently-labeled secondary antibodies (Anti-rabbit-Alexa Flour680, Invitrogen Cat #A21109; Anti-mouse-IRDye800CW, Li-cor Bioscieces Cat #926-32210, both at 1:1000 dilution) for 1 hour. Cells were then washed, as above, and analyzed for fluorescence at both 680 nm and 800 nm wavelengths using the Aerius Infrared Imaging System (LI-COR Biosciences, Model 9250). Phosphorylated Erk1/2 ([…]) signal was normalized to GAPDH signal for each well. IC50 values were calculated from the normalized values using a 4-parameter fit in BioAssay software. The reported IC50 in Table 2 may be from a single assay or the mean of multiple assays.

A further assay addresses T1, full-length SHP2 (Homo sapiens, UniProt Q06124).
T1 construct: 1 nM full-length SHP2 (His6-tagged SHP2(2-527), recombinantly expressed in E. coli and purified in-house); His6; made in house; host or cells: E. coli
T1 sequence (Q06124 2-527): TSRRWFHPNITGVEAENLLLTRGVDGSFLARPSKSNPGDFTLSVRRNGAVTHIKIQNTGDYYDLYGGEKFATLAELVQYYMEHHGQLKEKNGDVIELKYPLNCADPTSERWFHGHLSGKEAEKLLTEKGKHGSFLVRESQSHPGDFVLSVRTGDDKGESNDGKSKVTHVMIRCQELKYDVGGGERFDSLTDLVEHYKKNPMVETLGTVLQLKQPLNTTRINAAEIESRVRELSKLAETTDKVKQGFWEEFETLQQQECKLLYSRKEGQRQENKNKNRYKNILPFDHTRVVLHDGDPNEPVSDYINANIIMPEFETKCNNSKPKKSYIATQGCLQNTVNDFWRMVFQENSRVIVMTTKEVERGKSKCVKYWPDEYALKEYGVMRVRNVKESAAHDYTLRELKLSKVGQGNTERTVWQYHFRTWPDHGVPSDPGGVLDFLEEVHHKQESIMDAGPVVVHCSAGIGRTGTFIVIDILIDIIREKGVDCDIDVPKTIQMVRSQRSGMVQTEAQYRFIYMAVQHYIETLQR
The assay can be described thus: SHP2 enzymatic assay (fluorescence intensity kinetic assay, DiFMUP hydrolysis). To be noted: 1 nM His6-tagged SHP2(2-527), 1 μM activating peptide, 50 μM DiFMUP; single assay or mean of multiple assays; read-out: Biological Example 1 IC50. The format is biochemical. Here is the method:
A fluorescence intensity kinetic assay was configured for full-length SHP2 that monitors the amount of 6,8-difluoro-7-hydroxy-4-methylcoumarin (“DiFMU”) formed upon hydrolysis of 6,8-difluoro-4-methylumbelliferyl phosphate (“DiFMUP”) by SHP2. […] Low control wells lacked enzyme. The assays were initiated by the addition of a mixture of SHP2 and the activating peptide, and following a 15 second mix on an orbital shaker, were read in kinetic mode for 15 minutes (30 seconds/cycle) at ambient temperature on a PerkinElmer EnVision microplate reader (kEx=355 nm, kEm=460 nm). Initial velocities (slopes of the tangents at t=0) were estimated from exponential fits to the slightly nonlinear progress curves and then were converted to percent of control (“POC”) using the following equation:
[formula] • Where: xmax Average Uninhibited Controls • Xmin Average Background A 4-parameter logistic model was the fit to the POC data for each compound. From that fit, the IC50 was estimated and is defined as the concentration of compound at which the curve crosses 50 POC.

[2] abbreviates: KYSE-520, KYSE520 cells, 1 hour incubation, pERK signal normalized to GAPDH, single assay or mean of multiple assays, read-out: Biological Example 2 IC50.
Setting [3] is: KYSE-520, 1 h, read-out: Biological Example 2 IC50 (nM).

Usually IC50 stands for the point on the concentration scale where inhibition reaches its midpoint.

Like-named read-outs stand apart in the source and are kept apart here.

Regarding `COc1cnc2c(c1)[C@H](N)C1(CCN(c3ncc(Sc4ccnc(N)c4Cl)nn3)CC1)C2` (single isomer, unassigned) [Example 43], the IC50 stood at 509 nM in assay [1] (setting [2]) and 142 nM at full-length SHP2.

For the compound `N[C@@H]1c2ccccc2CC12CCN(c1ncc(-c3cccc(Cl)c3)nn1)CC2` [Example 80, (S)-1′-(6-(3-chlorophenyl)-1,2,4-triazin-3-yl)-1,3-dihydrospiro[indene-2,4′-piperidin]-1-amine], the values for the IC50 (in assay [1] (setting [2]); at full-length SHP2) were 2990 nM and 429 nM, respectively.

For the compound `Nc1cc(Sc2cnc(N3CCC4(CC3)Cc3ccccc3[C@H]4N)nn2)c(Cl)cn1` [Example 18, (S)-1′-(6-((2-amino-5-chloropyridin-4-yl)thio)-1,2,4-triazin-3-yl)-1,3-dihydrospiro[indene-2,4′-piperidin]-1-amine], the results for the IC50 (in assay [1] (setting [2]); at full-length SHP2) were 8 nM and 15 nM, respectively.

In the case of `N[C@@H]1c2ccccc2CC12CCN(c1ncc(Sc3ccnc4[nH]ccc34)nn1)CC2` [Example 30, (S)-1′-(6-((1H-pyrrolo[2,3-b]pyridin-4-yl)thio)-1,2,4-triazin-3-yl)-1,3-dihydrospiro[indene-2,4′-piperidin]-1-amine], the IC50 in assay [1] (setting [2]) was 2 nM; on full-length SHP2 it was 22 nM.

Take `Cc1cccc2c1CC1(CCN(c3ncc(Sc4ccnc(N)c4Cl)nn3)CC1)[C@H]2N` [Example 49, (R)-1′-(6-((2-amino-3-chloropyridin-4-yl)thio)-1,2,4-triazin-3-yl)-4-methyl-1,3-dihydrospiro[indene-2,4′-piperidin]-1-amine]: the IC50 was 126 nM in assay [1] (setting [2]) and 157 nM on full-length SHP2.

For the compound `CNc1nccc(Sc2cnc(N3CCC4(CC3)Cc3ncccc3[C@H]4N)nn2)c1Cl` [Example 39, (S)-1′-(6-((3-chloro-2-(methylamino)pyridin-4-yl)thio)-1,2,4-triazin-3-yl)-5,7-dihydrospiro[cyclopenta[b]pyridine-6,4′-piperidin]-5-amine], the IC50 in assay [1] (setting [2]) is 11 nM; on full-length SHP2, 78 nM.

In the case of `Cc1nccc(Sc2cnc(N3CCC4(CC3)Cc3ccccc3[C@H]4N)nn2)c1Cl` [Example 54, (S)-1′-(6-((3-chloro-2-methylpyridin-4-yl)thio)-1,2,4-triazin-3-yl)-1,3-dihydrospiro[indene-2,4′-piperidin]-1-amine], the IC50 was 7 nM in assay [1] (setting [2]) and 62 nM on full-length SHP2.

On to `Cc1nc2c(s1)[C@@H](N)C1(CCN(c3ncc(Sc4ccnc(N)c4Cl)nn3)CC1)C2` [Example 61, (S)-1′-(6-((2-amino-3-chloropyridin-4-yl)thio)-1,2,4-triazin-3-yl)-2-methyl-4,6-dihydrospiro[cyclopenta[d]thiazole-5,4′-piperidin]-6-amine], for which the figures for the IC50 (in assay [1] (setting [2]); on full-length SHP2) were 6 nM and 87 nM, respectively.

As to `Nc1ccc(Oc2cnc(N3CCC4(CC3)Cc3ccccc3[C@H]4N)nn2)cn1` [Example 22, (S)-1′-(6-((6-aminopyridin-3-yl)oxy)-1,2,4-triazin-3-yl)-1,3-dihydrospiro[indene-2,4′-piperidin]-1-amine], the 50% inhibitory concentration (IC50) is 17 nM in assay [1] (setting [2]) and 32 nM at full-length SHP2.

As for `Nc1nccc(Sc2cnc(N3C4CCC3CC3(Cc5ccccc5[C@H]3N)C4)nn2)c1Cl` (stereo partly drawn) [Example 78, (1′S)-8-(6-((2-amino-3-chloropyridin-4-yl)thio)-1,2,4-triazin-3-yl)-1′,3′-dihydro-8-azaspiro[bicyclo[3.2.1]octane-3,2′-inden]-1′-amine], the IC50 at full-length SHP2 was found to be 15000 nM.

On to `C[C@@H]1OCC2(CCN(c3ncc(Sc4ccc(N)nc4C(F)(F)F)nn3)CC2)[C@@H]1N` [Example 56, (3S,4S)-8-(6-((6-amino-2-(trifluoromethyl)pyridin-3-yl)thio)-1,2,4-triazin-3-yl)-3-methyl-2-oxa-8-azaspiro[4.5]decan-4-amine], for which the IC50 at full-length SHP2 was determined as 1370 nM.

Consider `N[C@@H]1c2ccccc2CC12CCN(c1ncc(N3CCc4cnccc43)nn1)CC2` [Example 15, (S)-1′-(6-(2,3-dihydro-1H-pyrrolo[3,2-c]pyridin-1-yl)-1,2,4-triazin-3-yl)-1,3-dihydrospiro[indene-2,4′-piperidin]-1-amine], for which, at full-length SHP2, the IC50 amounted to 7950 nM.

Turning to `[2H][C@]1(N)c2ccccc2CC12CCN(c1ncc(Sc3ccnc(N)c3Cl)nn1)CC2` [Example 75, (R)-1′-(6-((2-amino-3-chloropyridin-4-yl)thio)-1,2,4-triazin-3-yl)-1,3-dihydrospiro[indene-2,4′-piperidin]-1-d-1-amine], the IC50 in assay [1] (setting [3]) was 100 nM.

For `[2H][C@@]1(N)c2ccccc2CC12CCN(c1ncc(Sc3ccnc(N)c3Cl)nn1)CC2` [Example 74, (S)-1′-(6-((2-amino-3-chloropyridin-4-yl)thio)-1,2,4-triazin-3-yl)-1,3-dihydrospiro[indene-2,4′-piperidin]-1-d-1-amine], the IC50 in assay [1] (setting [3]) was found to be 1 nM.

`N[C@@H]1c2ccccc2CC12CCN(c1ncc([Se]c3ccccc3)nn1)CC2` [Example 40, (S)-1′-(6-(phenylselanyl)-1,2,4-triazin-3-yl)-1,3-dihydrospiro[indene-2,4′-piperidin]-1-amine]: at full-length SHP2, the concentration for half-maximal inhibition (IC50) came to 8 nM.

As to `Nc1nccc(Sc2cnc(N3CCC4(CC3)Cc3ccccc3[C@H]4N)nn2)c1Cl` [Example 6, (S)-1′-(6-((2-amino-3-chloropyridin-4-yl)thio)-1,2,4-triazin-3-yl)-1,3-dihydrospiro[indene-2,4′-piperidin]-1-amine], the concentration for half-maximal inhibition (IC50) in assay [1] (setting [3]) was 2 nM.

For the compound `N[C@@H]1c2ccccc2CC12CCN(c1ncc(Oc3cnc4[nH]ccc4c3)nn1)CC2` [Example 72, (S)-1′-(6-((1H-pyrrolo[2,3-b]pyridin-5-yl)oxy)-1,2,4-triazin-3-yl)-1,3-dihydrospiro[indene-2,4′-piperidin]-1-amine], the IC50 on full-length SHP2 is 16400 nM.

With `C[C@@H]1OCC2(CCN(c3ncc(Sc4ccnc(N)c4F)nn3)CC2)[C@@H]1N` [Example 21, (3S,4S)-8-(6-((2-amino-3-fluoropyridin-4-yl)thio)-1,2,4-triazin-3-yl)-3-methyl-2-oxa-8-azaspiro[4.5]decan-4-amine], the IC50 on full-length SHP2 was determined as 11100 nM.

`N[C@@H]1c2ccccc2CC12CCN(c1ncc(Sc3cnc4ncccn34)nn1)CC2` [Example 68, (S)-1′-(6-(imidazo[1,2-a]pyrimidin-3-ylthio)-1,2,4-triazin-3-yl)-1,3-dihydrospiro[indene-2,4′-piperidin]-1-amine]: the IC50 on full-length SHP2 was found to be 33 nM.

As to `Nc1nccc(Sc2cnc(N3CCC4(CC3)Cc3ccccc3[C@@H]4N)nn2)c1Cl` [Example 20, (R)-1′-(6-((2-amino-3-chloropyridin-4-yl)thio)-1,2,4-triazin-3-yl)-1,3-dihydrospiro[indene-2,4′-piperidin]-1-amine], the half-maximal inhibitory concentration (IC50) in assay [1] (setting [3]) turned out to be 206 nM.
